{"source": "the CheMixHub ionic liquid set", "test": "xn = mol fraction of the nth substance listed", "note": "± gives the uncertainty stated by the source.", "data": [{"smiles": "CCCC[n+]1ccccc1.F[B-](F)(F)F", "note": "+ CCCC[n+]1ccccc1.O=S(=O)([N-]S(=O)(=O)C(F)(F)F)C(F)(F)F", "values": [{"measurement": "viscosity", "setting": "303.15 K, 101 kPa, x2 = 0", "result": "123.6 ± 4.4", "unit": "mPa·s"}, {"measurement": "viscosity", "setting": "353.15 K, 101 kPa, x2 = 0", "result": "17.7 ± 0.4", "unit": "mPa·s"}]}, {"smiles": "COCCOCCOC", "note": "+ CCCC[n+]1ccn(C)c1.F[B-](F)(F)F", "values": [{"measurement": "viscosity", "setting": "283.15 K, 100 kPa, x2 = 0.05926", "result": "2.33 ± 0.027", "unit": "mPa·s"}, {"measurement": "viscosity", "setting": "283.15 K, 100 kPa, x2 = 0.1017", "result": "2.93 ± 0.035", "unit": "mPa·s"}, {"measurement": "viscosity", "setting": "283.15 K, 100 kPa, x2 = 0.193", "result": "4.788 ± 0.059", "unit": "mPa·s"}, {"measurement": "viscosity", "setting": "283.15 K, 100 kPa, x2 = 0.2925", "result": "8.04 ± 0.1", "unit": "mPa·s"}, {"measurement": "viscosity", "setting": "283.15 K, 100 kPa, x2 = 0.3989", "result": "14.34 ± 0.19", "unit": "mPa·s"}, {"measurement": "viscosity", "setting": "283.15 K, 100 kPa, x2 = 0.4972", "result": "23.78 ± 0.33", "unit": "mPa·s"}, {"measurement": "viscosity", "setting": "283.15 K, 100 kPa, x2 = 0.5761", "result": "35.48 ± 0.51", "unit": "mPa·s"}, {"measurement": "viscosity", "setting": "283.15 K, 100 kPa, x2 = 0.6977", "result": "62.63 ± 0.97", "unit": "mPa·s"}, {"measurement": "viscosity", "setting": "283.15 K, 100 kPa, x2 = 0.7915", "result": "93.5 ± 1.8", "unit": "mPa·s"}, {"measurement": "viscosity", "setting": "283.15 K, 100 kPa, x2 = 0.8978", "result": "151.1 ± 3.7", "unit": "mPa·s"}, {"measurement": "viscosity", "setting": "283.15 K, 100 kPa, x2 = 0.9426", "result": "187.3 ± 5", "unit": "mPa·s"}, {"measurement": "viscosity", "setting": "293.15 K, 100 kPa, x2 = 0.05427", "result": "1.895 ± 0.022", "unit": "mPa·s"}, {"measurement": "viscosity", "setting": "293.15 K, 100 kPa, x2 = 0.1026", "result": "2.374 ± 0.028", "unit": "mPa·s"}, {"measurement": "viscosity", "setting": "293.15 K, 100 kPa, x2 = 0.195", "result": "3.051 ± 0.038", "unit": "mPa·s"}, {"measurement": "viscosity", "setting": "293.15 K, 100 kPa, x2 = 0.2987", "result": "6.258 ± 0.079", "unit": "mPa·s"}, {"measurement": "viscosity", "setting": "293.15 K, 100 kPa, x2 = 0.3891", "result": "9.33 ± 0.12", "unit": "mPa·s"}, {"measurement": "viscosity", "setting": "293.15 K, 100 kPa, x2 = 0.4902", "result": "16.39 ± 0.23", "unit": "mPa·s"}, {"measurement": "viscosity", "setting": "293.15 K, 100 kPa, x2 = 0.5631", "result": "22.79 ± 0.33", "unit": "mPa·s"}, {"measurement": "viscosity", "setting": "293.15 K, 100 kPa, x2 = 0.6762", "result": "35.31 ± 0.54", "unit": "mPa·s"}, {"measurement": "viscosity", "setting": "293.15 K, 100 kPa, x2 = 0.7902", "result": "55.27 ± 0.89", "unit": "mPa·s"}, {"measurement": "viscosity", "setting": "293.15 K, 100 kPa, x2 = 0.8969", "result": "86 ± 1.6", "unit": "mPa·s"}, {"measurement": "viscosity", "setting": "293.15 K, 100 kPa, x2 = 0.9436", "result": "103.9 ± 2.2", "unit": "mPa·s"}, {"measurement": "viscosity", "setting": "303.15 K, 100 kPa, x2 = 0.04967", "result": "1.214 ± 0.015", "unit": "mPa·s"}, {"measurement": "viscosity", "setting": "303.15 K, 100 kPa, x2 = 0.05867", "result": "1.133 ± 0.014", "unit": "mPa·s"}, {"measurement": "viscosity", "setting": "303.15 K, 100 kPa, x2 = 0.1027", "result": "1.519 ± 0.018", "unit": "mPa·s"}, {"measurement": "viscosity", "setting": "303.15 K, 100 kPa, x2 = 0.1925", "result": "2.927 ± 0.036", "unit": "mPa·s"}, {"measurement": "viscosity", "setting": "303.15 K, 100 kPa, x2 = 0.2857", "result": "4.426 ± 0.056", "unit": "mPa·s"}, {"measurement": "viscosity", "setting": "303.15 K, 100 kPa, x2 = 0.4003", "result": "7.339 ± 0.098", "unit": "mPa·s"}, {"measurement": "viscosity", "setting": "303.15 K, 100 kPa, x2 = 0.4952", "result": "10.86 ± 0.15", "unit": "mPa·s"}, {"measurement": "viscosity", "setting": "303.15 K, 100 kPa, x2 = 0.5755", "result": "15.38 ± 0.22", "unit": "mPa·s"}, {"measurement": "viscosity", "setting": "303.15 K, 100 kPa, x2 = 0.6993", "result": "24.97 ± 0.39", "unit": "mPa·s"}, {"measurement": "viscosity", "setting": "303.15 K, 100 kPa, x2 = 0.7943", "result": "35.15 ± 0.58", "unit": "mPa·s"}, {"measurement": "viscosity", "setting": "303.15 K, 100 kPa, x2 = 0.8999", "result": "51.8 ± 0.88", "unit": "mPa·s"}, {"measurement": "viscosity", "setting": "303.15 K, 100 kPa, x2 = 0.9387", "result": "59.7 ± 1", "unit": "mPa·s"}, {"measurement": "viscosity", "setting": "313.15 K, 100 kPa, x2 = 0.08858", "result": "1.238 ± 0.015", "unit": "mPa·s"}, {"measurement": "viscosity", "setting": "313.15 K, 100 kPa, x2 = 0.168", "result": "1.472 ± 0.018", "unit": "mPa·s"}, {"measurement": "viscosity", "setting": "313.15 K, 100 kPa, x2 = 0.2583", "result": "2.155 ± 0.028", "unit": "mPa·s"}, {"measurement": "viscosity", "setting": "313.15 K, 100 kPa, x2 = 0.3563", "result": "3.486 ± 0.046", "unit": "mPa·s"}, {"measurement": "viscosity", "setting": "313.15 K, 100 kPa, x2 = 0.4578", "result": "5.566 ± 0.077", "unit": "mPa·s"}, {"measurement": "viscosity", "setting": "313.15 K, 100 kPa, x2 = 0.5473", "result": "8.36 ± 0.12", "unit": "mPa·s"}, {"measurement": "viscosity", "setting": "313.15 K, 100 kPa, x2 = 0.6683", "result": "12.94 ± 0.2", "unit": "mPa·s"}, {"measurement": "viscosity", "setting": "313.15 K, 100 kPa, x2 = 0.7655", "result": "18.99 ± 0.31", "unit": "mPa·s"}, {"measurement": "viscosity", "setting": "313.15 K, 100 kPa, x2 = 0.8894", "result": "28.19 ± 0.49", "unit": "mPa·s"}, {"measurement": "viscosity", "setting": "313.15 K, 100 kPa, x2 = 0.9307", "result": "31.25 ± 0.56", "unit": "mPa·s"}]}, {"smiles": "COCCOCCOC", "note": "+ CCCC[n+]1ccn(C)c1.F[P-](F)(F)(F)(F)F", "values": [{"measurement": "viscosity", "setting": "283.15 K, 100 kPa, x2 = 0.2056", "result": "7.206 ± 0.087", "unit": "mPa·s"}, {"measurement": "viscosity", "setting": "283.15 K, 100 kPa, x2 = 0.5857", "result": "63.81 ± 0.93", "unit": "mPa·s"}, {"measurement": "viscosity", "setting": "283.15 K, 100 kPa, x2 = 0.8057", "result": "237.7 ± 7", "unit": "mPa·s"}, {"measurement": "viscosity", "setting": "283.15 K, 100 kPa, x2 = 0.8992", "result": "407 ± 15", "unit": "mPa·s"}, {"measurement": "viscosity", "setting": "293.15 K, 100 kPa, x2 = 0.1028", "result": "2.611 ± 0.031", "unit": "mPa·s"}, {"measurement": "viscosity", "setting": "293.15 K, 100 kPa, x2 = 0.4923", "result": "23.24 ± 0.32", "unit": "mPa·s"}, {"measurement": "viscosity", "setting": "293.15 K, 100 kPa, x2 = 0.5839", "result": "39.17 ± 0.58", "unit": "mPa·s"}, {"measurement": "viscosity", "setting": "293.15 K, 100 kPa, x2 = 0.9523", "result": "295.7 ± 9.9", "unit": "mPa·s"}, {"measurement": "viscosity", "setting": "303.15 K, 100 kPa, x2 = 0.0572", "result": "1.283 ± 0.015", "unit": "mPa·s"}, {"measurement": "viscosity", "setting": "303.15 K, 100 kPa, x2 = 0.3956", "result": "8.98 ± 0.12", "unit": "mPa·s"}, {"measurement": "viscosity", "setting": "303.15 K, 100 kPa, x2 = 0.7842", "result": "65.7 ± 1.1", "unit": "mPa·s"}, {"measurement": "viscosity", "setting": "313.15 K, 100 kPa, x2 = 0.3979", "result": "4.083 ± 0.056", "unit": "mPa·s"}, {"measurement": "viscosity", "setting": "313.15 K, 100 kPa, x2 = 0.5861", "result": "13.01 ± 0.19", "unit": "mPa·s"}]}, {"smiles": "COCCOCCOC", "note": "+ CCCC[n+]1ccn(C)c1.O=S(=O)([N-]S(=O)(=O)C(F)(F)F)C(F)(F)F", "values": [{"measurement": "electrical conductivity", "setting": "294.5 K, 100 kPa, x2 = 0.03433", "result": "0.44 ± 0.04", "unit": "S/m"}]}]}
